Data on 10 compounds can be found in patent US9896448B2, “Pyrimido[4,5-b]quinoline-4,5(3H, 10H)-dione derivatives” (Novartis AG, priority 2014, dated 2018).

Assay [1] concerns alpha-L-Iduronidase W402X in Hurler patient derived fibroblast cells. Kind of assay: Hurler patient derived fibroblast cell cultures: restored alpha-L-iduronidase activity (W402X readthrough). In kind it is cell-based. The conditions noted are these: Homo sapiens, 192 h, 8 days incubation, highest concentration 20 uM; for Emax: 100% = 14 mM paromomycin, read-out: Amax. The text has this: Activity of compounds of the present invention was examined in patient derived fibroblast cells. The genotyped cells were derived from the Coriell Institute (#GM00798) and contain an in frame homozygous TGG to TAG change at nucleotide 1293 of exon 9 which results in a W402X mutation. The W402X mutation is one of the most common Hurler syndromes causing loss of function mutation. Between 60-70% of genotyped patients contain either the Q70X and/or the W402X in mutation and are classified as severe MPSI patients. This TAG stop codon triplet is permissive to aminoglycoside mediated translational readthrough which served as activity control for compound testing. Readthrough of W402X restores alpha-L-Iduronidase activity which results in removal of lysosomal accumulated Glycosaminoglycan's. Iduronidase expression could neither be detected by Taqman PCR© nor by enzyme activity or ELISA methods without compound stimulation. Compounds were tested in concentration response mode. Therefore 5000 patient cells/40 ul/well in 384 well plates were used. Compound dilutions were derived from freshly prepared 10 mM compound stock solutions. Highest concentration was 20 uM and subsequently diluted 1: 3.16 (8 point dilutions, n=4). Final DMSO concentration was below 0.5% and tested to be without effect on cell viability, growth and readthrough. Cells were incubated for 8 days with one cell media and compound exchange at day 3. Thereafter cell media was removed and cells were lysed (0.4 M Sodiumformate, 0.1% NaN3, 0.9% NaCl, 0.2% Triton, pH 3.5). Restored alpha-L-iduronidase activity in cell lysates was measured with the fluorescent 4-MU iduronide substrate (5 ul of 0.4 mM 4 Methylumbelliferyl alpha-L-iduronide/well) after 48 h incubation. Paromomycin was used as reference control (14 mM=100% control).

The subject of a further assay is CFTR-Y122X. Kind of assay: CFTR-Y122X assay (dual reporter Hek293 cell lines, Renilla luminescence readthrough). It counts as cell-based, human. The conditions noted are these: for Emax / AC50: nonsense mutation suppression, 24 h incubation, tested up to 100 μM; for Emax: 100% = 14 mM paromomycin, read-out: Amax; for AC50: Renilla luminescence. The text has this: In particular, compounds of formula (I) act as nonsense mutation suppressors on frequent PTCs, e.g. on Y122X in the mRNA of the cystic fibrosis conductance regulator protein (CFTR). This can be determined in vitro, for example, using cell lines expressing GFP-CFTR-Y122X-Renilla constructs as described herein.
Activity of compounds of the present invention was examined in recombinant, dual reporter isogenic Hek293 cell lines (“CFTR-Y122X assay”). The engineered reporter constructs contained the 18 bp sequence strech corresponding to a common Y122X PTC mutation in CFTR class I mutant patients (see Sermet-Gaudelus, BMC Medicine, 2007, 5(5)). Instead of a tyrosine (Y) in position 122 of the CFTR protein a TGA stop codon interrupts the open reading frame (Y122X) of the corresponding mRNA. This TGA stop codon triplet (followed by the pyrimidine base cytosine) is permissive to aminoglycoside mediated translational readthrough which served as positive control for high throughput screening. A corresponding TAA stop codon variant and a wildtype non mutated construct was used for confirmation and counter screening. The CFTR sequence was sandwitched between an eGFP reporter, and a triple myc tag sequence fused to a full length Renilla reporter. All sequences, including an intron containing one positioned pre-eGFP (b-globin intron) were cloned in frame. The corresponding expression constructs were stably expressed in the isogenic HEK-R4 cell host (Invitrogen Incorp.) and selected by blasticidin resistance. The isogenic integration of the construct minimizes gene dose effects and improves assay reproducibility. Stably integrated single cell derived clones were selected and characterized for aminoglycoside mediated readthrough. […] Readthrough of Y122X accumulates an intracellular localized fusion protein approximately 65.5 kDa in size as controlled by western blot analysis and immunofluorescence using an anti-renilla antibody. The eGFP reporter pre-PTC mutation serves as visual control for genetic stability of the screening clones and minimizes protein degradation of small fusion protein amounts. In the assay, compound concentration was 10 μM. In miniaturized 1536 well format 2000 cells were dispensed in 4 μl/well and incubated for 24 h at 37° C., 5% CO2. 40 nl compounds were placed on the cells with control wells containing 1 ul Paramomycin and 14.4 mM final concentration. Compounds were incubated for 24 h. Renilla Glo substrate (2.5 ul) was added and plates were centrifuged and processed for luminescence measurement using various readers. Activity calculation was done using the equation: A1(%)=100*(S−NC)/(AC−NC) where AC, NC and S correspond to active controls (injection of Stimulation buffer=100% stimulation), neutral controls (buffer injection which […]) and screening samples (S). NC corresponds to 0% activity whereas AC is 100% activity (14 mM paromomycin). False positive artefacts were removed in confirmation and validation screening using the same assay format followed by counterscreening using the respective wildtype construct (w/o PTC mutation) cell model. Compounds were tested up to 100 μM compound concentration.

For `Cn1c2ccccc2c(=O)c2c(=O)n(-c3ccccn3)c(C3CCC3)nc21` [Example 1.8, 2-cyclobutyl-10-methyl-3-(pyridin-2-yl)pyrimido[4,5-b]quinoline-4,5(3H,10H)-dione], the Emax in assay [1] turned out to be 184%; in the assay with CFTR-Y122X (Homo sapiens, HEK293) it was 271%. Further, the AC50 in assay [1] (8 point dilutions) turned out to be 9.9 µM; with CFTR-Y122X (Homo sapiens, HEK293), 4.8 µM.
Turning to `CCCc1nc2c(c(=O)c3ccccc3n2C)c(=O)n1-c1ccn(C)n1` [Example 1.3, 10-methyl-3-(1-methyl-1H-pyrazol-3-yl)-2-propylpyrimido[4,5-b]quinoline-4,5(3H,10H)-dione], the Emax in assay [1] came to 8%; in the assay with CFTR-Y122X (Homo sapiens, HEK293) it was 202%. This compound displayed an AC50 in the assay with CFTR-Y122X (Homo sapiens, HEK293) of 31.8 µM.
For `CC(C)c1nc2c(c(=O)c3ccccc3n2C)c(=O)n1-c1ccncc1` [Example 1.6, 2-isopropyl-10-methyl-3-(pyridin-4-yl)pyrimido[4,5-b]quinoline-4,5(3H,10H)-dione] the same measures were 5%, 14.9% and 2.9 µM.
On to `CC(C)c1nc2c(c(=O)c3ccccc3n2C)c(=O)n1-c1ccnn1C` [2-isopropyl-10-methyl-3-(1-methyl-1H-pyrazol-5-yl)pyrimido[4,5-b]quinoline-4,5(3H,10H)-dione], for which the “suppression, % of paromomycin reference activity” value in the assay on CFTR-Y122X (at the above dose ranges (up to 100 μM), paromomycin reference = 100%) was “less than 5%”.
Consider `CC(C)c1nc2c(c(=O)c3ccccc3n2C)c(=O)n1-c1ccccn1` [Example 1.7, 2-isopropyl-10-methyl-3-(pyridin-2-yl)pyrimido[4,5-b]quinoline-4,5(3H,10H)-dione], for which, in assay [1], the Emax amounted to 11%. In the assay on CFTR-Y122X (Homo sapiens, HEK293), the Emax was determined as 164% and half-maximal activity (AC50) was put at 11.7 µM.
As to `CC(C)c1nc2c(c(=O)c3ccccc3n2C)c(=O)n1-c1cc[nH]n1` [Example 1.1, 2-isopropyl-10-methyl-3-(1H-pyrazol-3-yl)pyrimido[4,5-b]quinoline-4,5(3H,10H)-dione], the Emax in assay [1] came to 7%. Moreover, in the assay on CFTR-Y122X (Homo sapiens, HEK293), the Emax stood at 14.8% and the AC50 turned out to be 6.7 µM.
For `CC(C)c1nc2c(c(=O)c3ccccc3n2C)c(=O)n1-c1ccn(C)n1` [Example 1.4, 2-isopropyl-10-methyl-3-(1-methyl-1H-pyrazol-3-yl)pyrimido[4,5-b]quinoline-4,5(3H,10H)-dione] the same measures were 21%, 133% and 13.6 µM.
For the compound `NC[C@@H]1O[C@H](O[C@H]2[C@@H](O)[C@H](O[C@@H]3[C@@H](O)[C@H](N)C[C@H](N)[C@H]3O[C@H]3O[C@H](CO)[C@@H](O)[C@H](O)[C@H]3N)O[C@@H]2CO)[C@H](N)[C@@H](O)[C@@H]1O` [paromomycin, reference compound], the EC50 with CFTR-Y122X (Homo sapiens, HEK293, clone selected for HTS assay development, read-out: EC50 (response of selected clone to aminoglycoside mediated readthrough)) was 1500 µM.
Take `CCCc1nc2c(c(=O)c3ccccc3n2C)c(=O)n1-c1ccccn1` [Example 1.2, 10-methyl-2-propyl-3-(pyridin-2-yl)pyrimido[4,5-b]quinoline-4,5(3H,10H)-dione]: the Emax in assay [1] turned out to be 1%. Moreover, in the assay with CFTR-Y122X (Homo sapiens, HEK293), the Emax worked out at 235% and the AC50 was found to be 18 µM.
For the compound `CC(C)c1nc2c(c(=O)c3ccccc3n2C)c(=O)n1-c1ccsc1` [Example 1.5, 2-isopropyl-10-methyl-3-(thiophen-3-yl)pyrimido[4,5-b]quinoline-4,5(3H,10H)-dione], in assay [1], the Emax came out at 5%. Further, in the assay on CFTR-Y122X (Homo sapiens, HEK293), the Emax was 128% and the AC50 was determined as 12.3 µM.

As a reminder, the AC50 is the midpoint of the concentration-response curve, whichever way the signal moves. A high value points to weaker potency. As usually defined, the EC50 is the concentration at which the effect is half-maximal.
